In general, IC50 refers to the concentration that inhibits the measured activity by half. By Papp B→A is commonly meant the apparent permeability from the basolateral to the apical side of a cell layer. For orientation: efflux ratio means the permeability from basolateral to apical divided by that in the opposite direction, in the common usage. Usually kinetic solubility stands for the concentration staying in solution when a stock, usually in DMSO, is diluted into the medium.

Each structure is given as a SMILES string.

Series [1] can be described thus: Antiproliferative activity against human EBC1 cells after 72 hrs by SRB assay. The settings on record: EBC-1, 72 h. Background: The SRB assay estimates cell density from bound dye.
A short description of series [2]: Antitumor activity against human EBC1 cells xenografted in nude mouse assessed as tumor growth inhibition at 5 mg/kg, po qd administered for 21 days relative to control. In kind it is functional. The settings on record: EBC-1, po, 504 h, read-out: TGI.
The nature of series [3]: Apparent permeability from basolateral to apical side in human Caco2 cells after 35 to 95 mins by LC-MS/MS analysis. In kind it is ADME, cell-based. The settings on record: Caco-2.
Series [4] has as its target Macrophage-stimulating protein receptor (Homo sapiens, UniProt Q04912). Kind of series: Inhibition of recombinant human Ron using poly (Glu,Tyr)4:1 as substrate after 60 mins by ELISA.
Series [5] has as its target Hepatocyte growth factor receptor (Homo sapiens, UniProt P08581). Kind of series: Inhibition of recombinant c-Met (unknown origin) using poly (Glu,Tyr)4:1 as substrate after 60 mins by ELISA. On the technique in general: An ELISA detects its analyte on a solid surface through an enzyme-linked reagent.
In series [6] the target is T1, Tyrosine-protein kinase Mer (Homo sapiens, UniProt Q12866).
T1 sequence (Q12866 whole entry): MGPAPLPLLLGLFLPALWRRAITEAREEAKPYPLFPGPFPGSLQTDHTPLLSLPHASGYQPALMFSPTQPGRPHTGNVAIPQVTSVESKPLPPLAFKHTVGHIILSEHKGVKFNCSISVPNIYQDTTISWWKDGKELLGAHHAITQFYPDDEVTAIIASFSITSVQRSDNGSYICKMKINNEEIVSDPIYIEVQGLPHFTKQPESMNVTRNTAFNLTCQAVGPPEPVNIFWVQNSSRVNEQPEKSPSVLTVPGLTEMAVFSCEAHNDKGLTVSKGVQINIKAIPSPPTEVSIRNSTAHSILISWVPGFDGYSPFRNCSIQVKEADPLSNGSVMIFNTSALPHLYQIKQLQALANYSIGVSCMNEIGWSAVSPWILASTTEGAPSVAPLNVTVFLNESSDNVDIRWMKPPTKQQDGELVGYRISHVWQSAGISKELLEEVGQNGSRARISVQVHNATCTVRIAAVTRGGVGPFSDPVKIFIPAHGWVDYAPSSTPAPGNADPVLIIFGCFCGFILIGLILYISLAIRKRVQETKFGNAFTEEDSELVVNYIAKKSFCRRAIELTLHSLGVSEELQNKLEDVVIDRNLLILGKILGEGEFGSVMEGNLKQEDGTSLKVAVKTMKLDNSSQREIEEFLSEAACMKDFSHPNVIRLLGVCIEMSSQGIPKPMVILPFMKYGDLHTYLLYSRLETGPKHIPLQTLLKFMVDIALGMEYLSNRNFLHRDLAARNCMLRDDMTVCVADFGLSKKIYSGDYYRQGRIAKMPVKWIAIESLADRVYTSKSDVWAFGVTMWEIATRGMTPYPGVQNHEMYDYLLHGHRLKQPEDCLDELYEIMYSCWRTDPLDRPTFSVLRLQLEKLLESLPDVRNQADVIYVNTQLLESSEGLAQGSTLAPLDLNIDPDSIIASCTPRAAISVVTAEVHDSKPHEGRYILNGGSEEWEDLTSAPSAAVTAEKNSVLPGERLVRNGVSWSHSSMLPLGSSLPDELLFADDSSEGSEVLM
The series is described as follows: Inhibition of recombinant human Mer using poly (Glu,Tyr)4:1 as substrate after 60 mins by ELISA.

Series [7] deals with Receptor tyrosine-protein kinase erbB-2 (Homo sapiens, UniProt P04626). The series is described as follows: Inhibition of recombinant human ErbB2 using poly (Glu,Tyr)4:1 as substrate after 60 mins by ELISA.
In series [8] the target is Platelet-derived growth factor receptor beta (Homo sapiens, UniProt P09619). Kind of series: Inhibition of recombinant human PDGFR-beta using poly (Glu,Tyr)4:1 as substrate after 60 mins by ELISA.
Series [9] concerns the target Vascular endothelial growth factor receptor 1 (Homo sapiens, UniProt P17948). The series is described as follows: Inhibition of recombinant human Flt-1 using poly (Glu,Tyr)4:1 as substrate after 60 mins by ELISA.
Series [10] is described as follows: Intrinsic clearance in mouse liver microsomes at 0.1 uM after 7 to 60 mins by LC-MS/MS analysis. In kind it is ADME. For orientation: Liver microsomes are a subcellular fraction often used to study metabolism.
For series [11], the system named is Mus musculus. Kind of series: Toxicity in nude mouse xenografted with human EBC1 cells assessed as body weight at 5 and 40 mg/kg, po qd administered for 21 days. In kind it is organism-based. The settings on record: in vivo, 504 h.
Series [12] has as its target T2, Tyrosine-protein kinase receptor TYRO3 (Homo sapiens, UniProt Q06418).
T2 sequence (Q06418 whole entry): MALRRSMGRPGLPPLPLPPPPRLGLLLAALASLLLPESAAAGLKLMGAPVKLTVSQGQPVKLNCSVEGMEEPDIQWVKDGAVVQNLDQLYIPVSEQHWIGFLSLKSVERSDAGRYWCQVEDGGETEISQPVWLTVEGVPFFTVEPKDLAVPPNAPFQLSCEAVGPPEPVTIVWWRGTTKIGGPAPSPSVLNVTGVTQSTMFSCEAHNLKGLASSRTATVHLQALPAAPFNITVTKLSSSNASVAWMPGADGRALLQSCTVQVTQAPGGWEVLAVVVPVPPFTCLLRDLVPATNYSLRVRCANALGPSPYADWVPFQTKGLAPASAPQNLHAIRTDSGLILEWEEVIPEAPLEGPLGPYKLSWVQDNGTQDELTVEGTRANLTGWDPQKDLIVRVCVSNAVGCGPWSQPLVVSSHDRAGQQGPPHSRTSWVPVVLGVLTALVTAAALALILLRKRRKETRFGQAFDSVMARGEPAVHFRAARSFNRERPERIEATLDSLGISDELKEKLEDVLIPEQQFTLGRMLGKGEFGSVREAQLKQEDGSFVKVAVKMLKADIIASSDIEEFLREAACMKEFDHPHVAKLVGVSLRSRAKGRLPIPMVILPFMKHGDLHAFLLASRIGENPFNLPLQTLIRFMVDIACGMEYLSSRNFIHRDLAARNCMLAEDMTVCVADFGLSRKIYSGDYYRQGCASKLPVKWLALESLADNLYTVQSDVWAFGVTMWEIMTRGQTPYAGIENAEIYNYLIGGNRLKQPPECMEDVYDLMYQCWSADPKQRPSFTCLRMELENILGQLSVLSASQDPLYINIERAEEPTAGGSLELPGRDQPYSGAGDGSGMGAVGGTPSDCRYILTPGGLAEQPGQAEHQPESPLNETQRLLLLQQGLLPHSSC
Kind of series: Inhibition of recombinant human TyrO3 using poly (Glu,Tyr)4:1 as substrate after 60 mins by ELISA.

Series [13] in a line: Efflux ratio of apparent permeability from basolateral to apical side over apical to basolateral side in human Caco2 cells after 35 to 95 mins by LC-MS/MS analysis. In kind it is ADME, cell-based. The settings on record: Caco-2.
A short description of series [14]: Solubility of compound in TRIS buffer by nephelometric analysis in presence of 0.1% BSA. In kind it is physicochemical. The settings on record: TRIS buffer with 0.1% BSA.
In series [15] the target is Vascular endothelial growth factor receptor 2 (Homo sapiens, UniProt P35968). Kind of series: Inhibition of recombinant human KDR using poly (Glu,Tyr)4:1 as substrate after 60 mins by ELISA.

Sequence of Macrophage-stimulating protein receptor (Q04912 25-304 limits assumed): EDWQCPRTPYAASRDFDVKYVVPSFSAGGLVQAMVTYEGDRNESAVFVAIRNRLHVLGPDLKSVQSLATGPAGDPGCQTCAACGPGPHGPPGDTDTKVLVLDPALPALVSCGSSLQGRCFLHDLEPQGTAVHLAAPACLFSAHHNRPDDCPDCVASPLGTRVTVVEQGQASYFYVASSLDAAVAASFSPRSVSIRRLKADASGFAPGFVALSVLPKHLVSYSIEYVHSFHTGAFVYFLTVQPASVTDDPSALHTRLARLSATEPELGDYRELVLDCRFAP
Sequence of Macrophage-stimulating protein receptor (Q04912 310-1400 limits assumed): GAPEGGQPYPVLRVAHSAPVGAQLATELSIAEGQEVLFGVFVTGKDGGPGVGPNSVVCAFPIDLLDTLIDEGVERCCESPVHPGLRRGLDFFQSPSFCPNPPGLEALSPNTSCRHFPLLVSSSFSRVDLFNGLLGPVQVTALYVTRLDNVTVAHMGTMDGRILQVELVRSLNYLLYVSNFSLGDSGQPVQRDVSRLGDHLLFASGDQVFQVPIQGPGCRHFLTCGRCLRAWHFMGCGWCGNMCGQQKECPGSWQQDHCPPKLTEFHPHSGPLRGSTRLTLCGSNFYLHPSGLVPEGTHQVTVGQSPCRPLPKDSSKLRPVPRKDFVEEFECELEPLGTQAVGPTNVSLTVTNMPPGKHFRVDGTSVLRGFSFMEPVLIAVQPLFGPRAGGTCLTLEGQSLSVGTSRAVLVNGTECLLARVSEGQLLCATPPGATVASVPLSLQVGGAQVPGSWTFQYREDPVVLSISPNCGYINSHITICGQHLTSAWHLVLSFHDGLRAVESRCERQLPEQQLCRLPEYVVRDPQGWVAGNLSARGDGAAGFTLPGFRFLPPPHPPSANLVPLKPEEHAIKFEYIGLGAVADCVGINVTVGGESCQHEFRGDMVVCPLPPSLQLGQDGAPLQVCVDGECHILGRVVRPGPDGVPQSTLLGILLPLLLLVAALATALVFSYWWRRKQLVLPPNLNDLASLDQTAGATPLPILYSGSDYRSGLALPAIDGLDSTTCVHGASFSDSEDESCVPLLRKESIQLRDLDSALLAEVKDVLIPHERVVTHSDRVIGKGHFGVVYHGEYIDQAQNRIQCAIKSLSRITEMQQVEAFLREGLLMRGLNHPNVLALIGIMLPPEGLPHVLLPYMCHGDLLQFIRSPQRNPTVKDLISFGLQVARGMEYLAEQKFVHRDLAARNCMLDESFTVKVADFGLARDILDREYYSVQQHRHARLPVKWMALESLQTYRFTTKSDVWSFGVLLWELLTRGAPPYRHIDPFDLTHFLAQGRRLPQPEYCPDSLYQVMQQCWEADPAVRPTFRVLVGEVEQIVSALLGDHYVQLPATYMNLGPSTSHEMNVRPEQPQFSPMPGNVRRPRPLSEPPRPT
Sequence of Platelet-derived growth factor receptor beta (P09619 whole entry): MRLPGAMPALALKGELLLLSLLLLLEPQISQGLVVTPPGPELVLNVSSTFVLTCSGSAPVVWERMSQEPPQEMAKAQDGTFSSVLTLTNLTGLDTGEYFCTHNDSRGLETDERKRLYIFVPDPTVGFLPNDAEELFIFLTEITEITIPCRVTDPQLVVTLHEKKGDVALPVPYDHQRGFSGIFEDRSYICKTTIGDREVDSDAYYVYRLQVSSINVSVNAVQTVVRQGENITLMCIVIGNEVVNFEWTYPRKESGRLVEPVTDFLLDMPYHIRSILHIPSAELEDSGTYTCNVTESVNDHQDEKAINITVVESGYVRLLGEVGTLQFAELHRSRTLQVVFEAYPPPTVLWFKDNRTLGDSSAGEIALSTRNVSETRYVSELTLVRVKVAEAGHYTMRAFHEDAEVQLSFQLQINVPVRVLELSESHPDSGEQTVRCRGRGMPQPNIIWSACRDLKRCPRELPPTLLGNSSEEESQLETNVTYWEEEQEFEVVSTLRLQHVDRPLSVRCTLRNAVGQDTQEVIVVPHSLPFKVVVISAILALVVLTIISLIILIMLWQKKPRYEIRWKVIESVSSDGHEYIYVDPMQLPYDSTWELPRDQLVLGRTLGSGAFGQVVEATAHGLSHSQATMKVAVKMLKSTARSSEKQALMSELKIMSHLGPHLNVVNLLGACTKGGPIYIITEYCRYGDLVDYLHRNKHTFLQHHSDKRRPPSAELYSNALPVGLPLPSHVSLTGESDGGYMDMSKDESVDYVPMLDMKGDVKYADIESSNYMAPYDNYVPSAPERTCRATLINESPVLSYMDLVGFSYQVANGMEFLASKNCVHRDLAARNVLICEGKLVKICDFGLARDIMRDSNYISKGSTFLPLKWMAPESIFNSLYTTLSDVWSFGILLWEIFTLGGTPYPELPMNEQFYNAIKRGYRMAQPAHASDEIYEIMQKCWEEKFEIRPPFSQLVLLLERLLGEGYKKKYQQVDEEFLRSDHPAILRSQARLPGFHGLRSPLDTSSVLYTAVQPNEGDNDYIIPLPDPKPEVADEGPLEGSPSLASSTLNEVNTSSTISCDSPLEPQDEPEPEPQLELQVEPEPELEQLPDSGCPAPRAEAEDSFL
Sequence of Vascular endothelial growth factor receptor 1 (P17948 whole entry): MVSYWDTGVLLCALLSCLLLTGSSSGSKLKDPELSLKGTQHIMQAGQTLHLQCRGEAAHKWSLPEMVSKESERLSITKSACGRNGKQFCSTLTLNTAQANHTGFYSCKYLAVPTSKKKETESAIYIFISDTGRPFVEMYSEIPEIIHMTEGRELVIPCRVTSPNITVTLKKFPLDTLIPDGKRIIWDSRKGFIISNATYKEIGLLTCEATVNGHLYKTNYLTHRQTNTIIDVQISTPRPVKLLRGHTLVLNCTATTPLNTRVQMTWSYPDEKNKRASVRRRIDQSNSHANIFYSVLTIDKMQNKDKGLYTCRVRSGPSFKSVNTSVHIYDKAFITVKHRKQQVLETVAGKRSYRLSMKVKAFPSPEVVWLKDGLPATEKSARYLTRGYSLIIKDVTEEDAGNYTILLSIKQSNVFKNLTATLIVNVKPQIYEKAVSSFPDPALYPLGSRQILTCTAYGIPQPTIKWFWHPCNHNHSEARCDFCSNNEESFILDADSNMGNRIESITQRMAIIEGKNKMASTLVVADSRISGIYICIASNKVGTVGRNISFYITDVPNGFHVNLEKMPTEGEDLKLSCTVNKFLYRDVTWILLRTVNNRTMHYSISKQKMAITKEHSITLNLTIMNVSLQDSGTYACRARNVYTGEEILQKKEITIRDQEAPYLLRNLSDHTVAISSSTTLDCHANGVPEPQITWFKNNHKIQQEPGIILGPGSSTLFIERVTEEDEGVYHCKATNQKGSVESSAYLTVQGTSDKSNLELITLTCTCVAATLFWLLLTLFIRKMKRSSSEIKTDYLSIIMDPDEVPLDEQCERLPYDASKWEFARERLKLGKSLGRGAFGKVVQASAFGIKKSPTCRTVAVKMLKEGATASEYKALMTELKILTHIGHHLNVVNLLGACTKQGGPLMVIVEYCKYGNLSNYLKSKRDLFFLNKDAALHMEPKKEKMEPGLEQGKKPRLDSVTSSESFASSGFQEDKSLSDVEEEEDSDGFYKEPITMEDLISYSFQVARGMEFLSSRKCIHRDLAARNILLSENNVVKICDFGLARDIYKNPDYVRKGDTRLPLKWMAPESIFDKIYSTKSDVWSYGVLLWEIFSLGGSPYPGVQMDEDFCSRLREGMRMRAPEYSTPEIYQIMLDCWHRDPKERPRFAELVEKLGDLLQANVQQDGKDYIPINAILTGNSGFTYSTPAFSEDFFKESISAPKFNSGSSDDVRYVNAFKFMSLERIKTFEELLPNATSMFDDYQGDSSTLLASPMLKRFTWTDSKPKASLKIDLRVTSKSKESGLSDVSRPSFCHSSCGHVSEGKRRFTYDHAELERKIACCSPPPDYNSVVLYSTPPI
Sequence of Receptor tyrosine-protein kinase erbB-2 (P04626 whole entry): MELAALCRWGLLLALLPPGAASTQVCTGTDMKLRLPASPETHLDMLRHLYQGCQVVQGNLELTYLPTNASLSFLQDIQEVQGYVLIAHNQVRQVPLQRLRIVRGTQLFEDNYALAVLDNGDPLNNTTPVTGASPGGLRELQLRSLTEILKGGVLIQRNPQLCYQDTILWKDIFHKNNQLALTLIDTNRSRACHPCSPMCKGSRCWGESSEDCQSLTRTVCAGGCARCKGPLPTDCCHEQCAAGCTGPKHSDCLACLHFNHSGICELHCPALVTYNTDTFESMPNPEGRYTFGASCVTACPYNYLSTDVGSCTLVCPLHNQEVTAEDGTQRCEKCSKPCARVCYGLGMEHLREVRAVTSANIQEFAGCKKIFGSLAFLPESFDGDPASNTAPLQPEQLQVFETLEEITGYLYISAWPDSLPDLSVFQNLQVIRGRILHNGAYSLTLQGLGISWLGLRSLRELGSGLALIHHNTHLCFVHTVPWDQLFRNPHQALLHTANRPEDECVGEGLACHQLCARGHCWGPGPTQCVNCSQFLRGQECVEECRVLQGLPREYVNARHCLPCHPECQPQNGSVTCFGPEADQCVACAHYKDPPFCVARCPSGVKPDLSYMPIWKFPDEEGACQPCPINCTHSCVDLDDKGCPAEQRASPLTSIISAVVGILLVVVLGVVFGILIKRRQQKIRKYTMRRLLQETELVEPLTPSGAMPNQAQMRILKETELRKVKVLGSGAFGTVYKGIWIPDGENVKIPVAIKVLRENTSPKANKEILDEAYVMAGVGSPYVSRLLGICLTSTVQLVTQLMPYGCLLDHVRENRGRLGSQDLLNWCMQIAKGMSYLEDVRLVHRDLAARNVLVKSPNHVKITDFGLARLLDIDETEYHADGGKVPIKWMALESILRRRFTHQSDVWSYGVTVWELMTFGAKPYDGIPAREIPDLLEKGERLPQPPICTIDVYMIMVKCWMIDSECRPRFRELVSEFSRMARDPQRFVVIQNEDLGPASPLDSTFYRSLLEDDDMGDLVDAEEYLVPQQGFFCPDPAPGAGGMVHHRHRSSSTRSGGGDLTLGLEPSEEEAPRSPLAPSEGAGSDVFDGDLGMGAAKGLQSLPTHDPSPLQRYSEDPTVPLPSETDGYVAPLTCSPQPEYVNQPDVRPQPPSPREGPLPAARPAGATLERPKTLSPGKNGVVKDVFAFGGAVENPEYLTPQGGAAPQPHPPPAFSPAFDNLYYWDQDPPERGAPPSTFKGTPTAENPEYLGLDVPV

On to `Cn1cc(-c2cnc(Nc3cccc(Cn4nc(-c5cnn(C)c5)ccc4=O)c3)nc2)cn1`, for which the IC50 is 31.2 nM in series [1]; more than 1000 nM in [4]; 7.5 nM in series [5]; more than 1000 nM in series [6]; more than 1000 nM in series [7]; more than 1000 nM in series [8]. The IC50 in [9], in series [12] and in series [15] was more than 1000 nM throughout. Moreover, the inhibition in vivo at 5 mg/kg in [2] was found to be 42.5%. For the same compound, the Papp B→A in series [3] amounted to 22.8 ×10⁻⁶ cm/s. For the same compound, the CLH in series [10] was found to be 16 mL/min/g. The Activity entry in series [11] is listed as “Non-toxic”. For the same compound, the efflux ratio in [13] was 1.3. Besides, the solubility (kinetic) in [14] stood at 51 µM.

The values above are taken from ChEMBL document CHEMBL3758137 (Eur J Med Chem, 2016).
